Test results from patent US8440666B2, “Pyridazinone compounds and P2X7 receptor inhibitors” (Nissan Chemical Industries, Ltd., priority 2007, dated 2013).

What was measured:
[1] = target: T1, Human P2X7 (hP2X7) receptor (Homo sapiens, UniProt Q99572); assay: Dye assay: BzATP-induced Yo-Pro-1 uptake in HEK293 cells stably expressing hP2X7; assay type: cell-based; settings: 90 min incubation
T1 construct: myc-His (from the pcDNA3.1/myc-HisA vector); expressed in transfected cells
T1 sequence (Q99572 1-595): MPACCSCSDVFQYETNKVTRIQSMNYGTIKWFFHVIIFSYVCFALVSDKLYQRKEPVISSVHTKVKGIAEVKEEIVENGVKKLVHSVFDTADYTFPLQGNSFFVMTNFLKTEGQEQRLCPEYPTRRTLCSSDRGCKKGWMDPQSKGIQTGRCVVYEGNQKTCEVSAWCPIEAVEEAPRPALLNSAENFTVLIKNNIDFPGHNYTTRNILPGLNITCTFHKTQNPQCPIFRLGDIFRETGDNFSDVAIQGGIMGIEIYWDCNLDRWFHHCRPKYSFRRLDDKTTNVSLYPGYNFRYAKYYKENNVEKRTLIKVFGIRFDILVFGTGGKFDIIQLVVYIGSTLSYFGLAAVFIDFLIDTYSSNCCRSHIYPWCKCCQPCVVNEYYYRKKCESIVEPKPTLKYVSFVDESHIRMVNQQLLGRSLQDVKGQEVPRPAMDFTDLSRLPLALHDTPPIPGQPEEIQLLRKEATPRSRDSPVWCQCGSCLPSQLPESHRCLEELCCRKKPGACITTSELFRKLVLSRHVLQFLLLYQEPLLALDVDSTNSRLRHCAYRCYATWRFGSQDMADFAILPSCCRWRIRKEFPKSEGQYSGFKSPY
From the text: Human P2X7 (hP2×7) was cloned from a normal human brain total RNA library by reverse transcription (using SuperScript II (Invitrogen)) and PCR (using KOD-plus-(TOYOBO)). PCR primers were designed according to hP2X7 sequence registered in GENBANK with a putative amino acid sequence consisting of 595 amino acid residues. The PCR fragments were inserted into pcDNA3.1/myc-HisA vector (Invitrogen) and sequenced for confirmation.
HEK293 cells were transfected with hP2×7/pcDNA3.1/myc-HisA by lipofection, and 1 day later, the cells were treated with 1 mg/mL G418, and resistant cells were selected by appropriately dilution. The resistant cells were cloned by reseeding at a low density.
P2X7 receptor antagonists were screened by a dye uptake assay using HEK293 cells stably expressing hP2×7. Cells were plated on a type I collagen-coated black/clear bottom 96-well plate at 20000 cells/well and a day later, treated with varying concentrations of various test compounds for 30 minutes, then treated with a dye (Yo-Pro-1) (final concentration 2 μM) and BzATP (final concentration 0.1 mM) and incubated for 90 minutes. Then, the fluorescence (indicating the BzATP-induced Yo-Pro-1 uptake mediated by the P2X7 receptor) was measured with a microplate reader (excitation wavelength: 485 nm, emission wavelength: 535 nm). The % inhibition rates were calculated and plotted against the logarithms of the concentrations to determine IC50.

[2] = test system: IL-1β in supernatants of peripheral blood mononuclear cells; assay: IL-1β assay: BzATP- or ATP-induced IL-1β release from LPS-treated human peripheral blood mononuclear cells; assay type: cell-based; settings: 2 h; IL-1β in supernatants of LPS-treated human PBMC; BzATP (1 mM) or ATP (5 mM), 120 min
Experimental: Human whole blood from healthy volunteers was diluted with equal volume of saline and peripheral blood mononuclear cells were collected by using a Limphoprep tube (Daiichi Pure Chemicals), washed with physiological saline and seeded onto a 96-well plate with a medium containing 1-10 ng/mL LPS (SIGMA). 30 minutes later, the cells were treated with varying concentrations of various compounds and incubated for 30 minutes. Then, the cells were treated with BzATP (final concentration 1 mM) or ATP (final concentration 5 mM) and incubated for 120 minutes. The cells were centrifugated to collect supernatents, and the concentration of IL-1β in supernatants were determined by IL-1β HTRF kit (CIS biointernational). The % inhibition rates were calculated and plotted against the logarithms of the concentrations to determine IC50.

[3] = BzATP (0.1 mM)-induced Yo-Pro-1 uptake, compounds 30 min pre-treatment
[4] = BzATP 0.1 mM, Yo-Pro-1 2 μM, 30 min pre-treatment

SMILES	IC50 [1, 3]	IC50 [2]	IC50 [1, 4]
O=C(Cn1ncc(NC2C3CCCC2CCC3)c(Br)c1=O)NCc1ccncc1 (centres unmarked) [compound 325]	8.9 nM	40 nM	–
CCC(NC(=O)Cn1ncc(N[C@@H]2C[C@@H]3C[C@H]([C@H]2C)C3(C)C)c(Br)c1=O)c1ccncc1 (some centres unmarked) [compound 171]	4.3 nM	33 nM	–
CC(NC(=O)Cn1ncc(N[C@@H]2C[C@@H]3C[C@H]([C@H]2C)C3(C)C)c(Cl)c1=O)c1ccncc1Cl (some centres unmarked) [compound 264]	1.4 nM	3.3 nM	–
Cc1cnncc1CNC(=O)Cn1ncc(N[C@@H]2C[C@@H]3C[C@H]([C@H]2C)C3(C)C)c(Cl)c1=O [compound 432]	–	17 nM	2.1 nM
CC(NC(=O)Cn1ncc(NC2C3CCCC2CCC3)c(Cl)c1=O)c1ccncc1Cl (centres unmarked) [compound 378]	1.5 nM	1.5 nM	–
C[C@@H]1[C@H]2C[C@@H](C[C@H]1Nc1cnn(CC(=O)NCc3ccncc3S(C)(=O)=O)c(=O)c1Cl)C2(C)C [compound 442]	–	27 nM	1.7 nM
CCOc1nn(CC(=O)c2ccc(N(CC)CC)cc2)c(=O)c(Cl)c1N[C@@H]1C[C@@H]2C[C@H]([C@H]1C)C2(C)C [Synthetic Example 140]	15 nM	–	–
C[C@@H]1[C@H]2C[C@@H](C[C@H]1Nc1cnn(CC(=O)N[C@H](CO)c3ccccc3)c(=O)c1Cl)C2(C)C [compound 270]	30 nM	–	–
C[C@@H]1[C@H]2C[C@@H](C[C@H]1Nc1cnn(-c3cccc(C(=O)NCC4(O)CCCCCC4)c3)c(=O)c1Br)C2(C)C [Synthetic Example 409, 3-[5-Bromo-6-oxo-4-{[(1R,2R,3R,5S)-2,6,6-trimethylbicyclo[3.1.1]hept-3-yl]amino}pyridazin-1(6H)-yl]-N-[(1-hydroxycycloheptyl)methyl]benzamide]	71 nM	–	–
CC(NC(=O)Cn1ncc(N[C@@H]2C[C@@H]3C[C@H]([C@H]2C)C3(C)C)c(Br)c1=O)c1ccc(F)cc1 (some centres unmarked) [compound 178]	30 nM	–	–
C[C@@H]1[C@H]2C[C@@H](C[C@H]1Nc1cnn(CCS(=O)(=O)c3ccccc3)c(=O)c1Cl)C2(C)C [compound 308]	230 nM	–	–
CC(C)NC(=O)Cn1ncc(N[C@@H]2C[C@@H]3C[C@H]([C@H]2C)C3(C)C)c(Br)c1=O [compound 2]	51 nM	–	–
C[C@@H]1[C@H]2C[C@@H](C[C@H]1Nc1cnn(CC(=O)NCc3cnccn3)c(=O)c1Br)C2(C)C [compound 14]	21 nM	–	–
CC(NC(=O)Cn1ncc(N[C@@H]2C[C@@H]3C[C@H]([C@H]2C)C3(C)C)c(Br)c1=O)c1ccccc1 (some centres unmarked) [compound 23]	34 nM	–	–
COc1cnccc1CNC(=O)Cn1ncc(N[C@@H]2C[C@@H]3C[C@H]([C@H]2C)C3(C)C)c(Cl)c1=O [compound 294]	5.4 nM	–	–
C[C@@H]1[C@H]2C[C@@H](C[C@H]1Nc1cnn(CC(=O)NC3CC3)c(=O)c1Br)C2(C)C [compound 19]	38 nM	–	–
C[C@@H]1[C@H]2C[C@@H](C[C@H]1Nc1cnn(Cc3ccncc3)c(=O)c1Br)C2(C)C [Synthetic Example 394, 4-Bromo-2-(pyridin-4-ylmethyl)-5-{[(1R,2R,3R,5S)-2,6,6-trimethylbicyclo[3.1.1]hept-3-yl]amino}pyridazin-3(2H)-one]	220 nM	–	–
O=C(Cn1ncc(NC2C3CC4CC(C3)CC2C4)c(Br)c1=O)NCc1ccncc1 (centres unmarked) [compound 74]	22 nM	–	–
C[C@@H]1[C@H]2C[C@@H](C[C@H]1Nc1cnn(CC(=O)NC(C(=O)O)c3ccccc3)c(=O)c1Br)C2(C)C (stereo partly drawn) [Synthetic Example 403, ({[5-Bromo-6-oxo-4-{[(1R,2R,3R,5S)-2,6,6-trimethylbicyclo[3.1.1]hept-3-yl]amino}pyridazin-1(6H)-yl]acetyl}amino)(phenyl)acetic Acid]	74 nM	–	–

SMILES	IC50 [1, 3]	IC50 [2]	IC50 [1, 4]
O=C(Cn1ncc(NC23CC4CC(CC2C4)C3)c(Br)c1=O)NCc1ccnnc1 [compound 345]	34 nM	–	–
O=C(Cn1ncc(SC23CC4CC(CC(C4)C2)C3)c(Br)c1=O)NCc1ccncc1 [Synthetic Example 430, 2-[5-Bromo-6-oxo-4-(tricyclo[3.3.1.1^3,7]dec-1-ylsulfanyl)pyridazin-1-(6H)-yl]-N-(pyridin-4-ylmethyl)acetamide]	58 nM	–	–
CC(NC(=O)Cn1ncc(N[C@@H]2C[C@@H]3C[C@@H](C3(C)C)[C@]2(C)O)c(Cl)c1=O)c1ccnc(F)c1 (some centres unmarked) [compound 365]	2.7 nM	–	–
C[C@@H]1[C@H]2C[C@@H](C[C@H]1Nc1cnn(CC(=O)NCc3cccnc3)c(=O)c1Br)C2(C)C [compound 12]	20 nM	–	–
Cc1cnccc1CNC(=O)Cn1ncc(N[C@@H]2C[C@@H]3C[C@@H](C3(C)C)[C@]2(C)O)c(Cl)c1=O [compound 361]	18 nM	–	–
O=C(Cn1ncc(NC2CC3CC4CC(C3)C2C4)c(Br)c1=O)NCc1ccncc1 (centres unmarked) [compound 331]	19 nM	–	–
C[C@@H]1[C@H]2C[C@@H](C[C@H]1Nc1cnn(CC(=O)NCc3ccc(NS(C)(=O)=O)cc3)c(=O)c1Cl)C2(C)C [compound 252]	130 nM	–	–
COc1cc(CNC(=O)Cn2ncc(N[C@@H]3C[C@@H]4C[C@H]([C@H]3C)C4(C)C)c(Br)c2=O)ccn1 [compound 104]	57 nM	–	–
C[C@@H]1[C@H]2C[C@@H](C[C@H]1Nc1cnn(CC(=S)NCc3ccncc3)c(=O)c1Br)C2(C)C [Synthetic Example 156, 2-{5-Bromo-6-oxo-4-[(1R,2R,3R,5S)-2,6,6-trimethylbicyclo[3.1.1]hept-3-ylamino]pyridazin-1(6H)-yl}-N-(pyridin-4-ylmethyl)ethanethioamide]	24 nM	–	–
O=C(Cn1ncc(NC23CC4CC(CC2C4)C3)c(Cl)c1=O)NCc1ccnc(F)c1 [compound 343]	25 nM	–	–
CCC(NC(=O)Cn1ncc(N[C@@H]2C[C@@H]3C[C@H]([C@H]2C)C3(C)C)c(Cl)c1=O)C(N)=O (stereo partly drawn) [Synthetic Example 402, 2-({[5-Chloro-6-oxo-4-{[(1R,2R,3R,5S)-2,6,6-trimethylbicyclo[3.1.1]hept-3-yl]amino}pyridazin-1(6H)-yl]acetyl}amino)butanamide]	120 nM	–	–
CCC(NC(=O)Cn1ncc(N[C@@H]2C[C@@H]3C[C@H]([C@H]2C)C3(C)C)c(Cl)c1=O)c1ccnnc1 (some centres unmarked) [compound 288]	3 nM	–	–
CCC(NC(=O)Cn1ncc(N[C@@H]2C[C@@H]3C[C@@H](C3(C)C)[C@]2(C)O)c(Cl)c1=O)c1ccncc1 (some centres unmarked) [compound 360]	14 nM	–	–
CC(NC(=O)Cn1ncc(NC23CC4CC(CC2C4)C3)c(Br)c1=O)c1ccnnc1 (centres unmarked) [compound 348]	26 nM	–	–
C[C@@H]1[C@H]2C[C@@H](C[C@H]1Nc1cnn(CC(=O)Nc3cccnc3)c(=O)c1Cl)C2(C)C [compound 227]	38 nM	–	–
C[C@@H]1[C@H]2C[C@@H](C[C@H]1Nc1cnn(CC(=O)NCc3ccnc(F)c3Cl)c(=O)c1Cl)C2(C)C [compound 448]	–	–	14 nM
C[C@@H]1[C@H]2C[C@@H](C[C@H]1Nc1cnn(CC(=O)NC(C(N)=O)c3ccccc3)c(=O)c1Br)C2(C)C (stereo partly drawn) [Synthetic Example 404, N-(2-Amino-2-oxo-1-phenylethyl)-2-[5-bromo-6-oxo-4-{[(1R,2R,3R,5S)-2,6,6-trimethylbicyclo[3.1.1]hept-3-yl]amino}pyridazin-1(6H)-yl]acetamide]	47 nM	–	–
C[C@@H]1[C@H]2C[C@@H](C[C@H]1Nc1cnn(CC(=O)NCc3ccc(O)cc3)c(=O)c1Br)C2(C)C [compound 205]	58 nM	–	–
Cc1c(N[C@@H]2C[C@@H]3C[C@H]([C@H]2C)C3(C)C)cnn(CC(=O)NCc2ccncc2)c1=O [Synthetic Example 154, 2-{5-Methyl-6-oxo-4-[(1R,2R,3R,5S)-2,6,6-trimethylbicyclo[3.1.1]hept-3-ylamino]pyridazin-1(6H)-yl}-N-(pyridin-4-ylmethyl)acetamide]	22 nM	–	–
